Laboratory results published in patent US20110144159A1, “ETHER BENZYLIDENE PIPERIDINE ARYL CARBOXAMIDE COMPOUNDS USEFUL AS FAAH INHIBITORS” (Pfizer Inc, priority 2008, published 2011).

The compounds below were run against T1, Human FAAH (Homo sapiens, UniProt O00519) (assay: FAAH assay (glutamate dehydrogenase-coupled, oleamide substrate, absorbance at 340 nm)). Conditions: irreversible inhibition potency.
T1 construct: made in house
T1 sequence (O00519 32-579 limits assumed): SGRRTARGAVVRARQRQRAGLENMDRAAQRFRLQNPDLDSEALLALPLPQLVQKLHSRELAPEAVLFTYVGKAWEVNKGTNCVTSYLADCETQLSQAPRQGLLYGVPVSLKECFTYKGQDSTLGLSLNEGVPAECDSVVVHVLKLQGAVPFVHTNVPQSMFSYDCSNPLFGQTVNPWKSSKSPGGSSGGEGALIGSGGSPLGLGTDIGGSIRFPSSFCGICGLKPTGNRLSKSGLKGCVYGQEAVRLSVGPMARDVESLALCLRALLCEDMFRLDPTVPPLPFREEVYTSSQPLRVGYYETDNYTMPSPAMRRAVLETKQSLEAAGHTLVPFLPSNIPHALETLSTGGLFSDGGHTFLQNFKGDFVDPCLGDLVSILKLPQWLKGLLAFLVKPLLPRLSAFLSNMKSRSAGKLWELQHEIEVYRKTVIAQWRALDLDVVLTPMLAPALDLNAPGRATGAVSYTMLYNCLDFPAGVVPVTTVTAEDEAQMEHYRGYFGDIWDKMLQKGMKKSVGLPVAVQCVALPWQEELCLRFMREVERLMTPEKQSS
Type: biochemical
Procedure, shortened: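 Human FAAH (1-4 nM) with 50 μM oleamide, coupled to glutamate dehydrogenase/NADH, pH 7.4, 7.5% DMSO and EtOH, 30° C; A340 read every 30 s for 90 min. Irreversible inhibition fitted for kobs per concentration, then Ki and kinact from kobs vs. [I].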
For `CC1CCC(Oc2cccc(C=C3CCN(C(=O)Nc4cccnc4)CC3)c2)CC1` (centres unmarked) [Example 36, 4-{3-[(4-methylcyclohexyl)oxy]benzylidene}-N-pyridin-3-ylpiperidine-1-carboxamide], the “hFAAH KInact/K” value was 992 M⁻¹ s⁻¹. With `CN1CCCCC1COc1cccc(C=C2CCN(C(=O)Nc3cccnn3)CC2)c1` (centres unmarked) [Example 55, 4-{3-[(1-methylpiperidin-2-yl)methoxy]benzylidene}-N-pyridazin-3-ylpiperidine-1-carboxamide] the “hFAAH KInact/K” value was 35 M⁻¹ s⁻¹. For `CO[C@@H](COc1cccc(C=C2CCN(C(=O)Nc3cccnn3)CC2)c1)c1ccccc1` [Example 58, 4-{3-[(2R)-2-methoxy-2-phenylethoxy]benzylidene}-N-pyridazin-3-ylpiperidine-1-carboxamide], the “hFAAH KInact/K” value was 473 M⁻¹ s⁻¹. For `Cc1cc(COc2cccc(C=C3CCN(C(=O)Nc4cccnn4)CC3)c2)no1` [Example 54, 4-{3-[(5-methylisoxazol-3-yl)methoxy]benzylidene}-N-pyridazin-3-ylpiperidine-1-carboxamide], the “hFAAH KInact/K” value was 1880 M⁻¹ s⁻¹. In the case of `O=C(Nc1cccnc1)N1CCC(=Cc2cccc(OC3CCCCCC3)c2)CC1` [Example 18, 4-[3-(cycloheptyloxy)benzylidene]-N-pyridin-3-ylpiperidine-1-carboxamide], the “hFAAH KInact/K” value is reported as 1020 M⁻¹ s⁻¹. `O=C(Nc1cccnc1)N1CCC(=Cc2cccc(OC3CCCOC3)c2)CC1` (centres unmarked) [Example 12, N-pyridin-3-yl-4-[3-(tetrahydro-2H-pyran-3-yloxy)benzylidene]piperidine-1-carboxamide] was tested, and the “hFAAH KInact/K” value was 907 M⁻¹ s⁻¹. `O=C(Nc1cccnn1)N1CCC(=Cc2cccc(OCC3CCOCC3)c2)CC1` [Example 76, N-pyridazin-3-yl-4-[3-(tetrahydro-2H-pyran-4-ylmethoxy)benzylidene]piperidine-1-carboxamide] was tested, and the “hFAAH KInact/K” value was 2548 M⁻¹ s⁻¹. In the case of `CC1CN(CCOc2cccc(C=C3CCN(C(=O)Nc4cccnn4)CC3)c2)CC(C)O1` (centres unmarked) [Example 102, 4-{3-[2-(2,6-dimethylmorpholin-4-yl)ethoxy]benzylidene}-N-pyridazin-3-ylpiperidine-1-carboxamide], the “hFAAH KInact/K” value is reported as 207 M⁻¹ s⁻¹. In the case of `CC(C)Oc1cccc(C=C2CCN(C(=O)Nc3cccnc3)CC2)c1` [Example 37, 4-(3-isopropoxybenzylidene)-N-pyridin-3-ylpiperidine-1-carboxamide], the “hFAAH KInact/K” value is reported as 1380 M⁻¹ s⁻¹. For “N-pyridazin-3-yl-4-[3-(2-pyridin-4-ylethoxy)benzylidene]piperidine-1-carboxamide [Example 79]”, the “hFAAH KInact/K” value was 3834 M⁻¹ s⁻¹. With `CCCC(C)Oc1cccc(C=C2CCN(C(=O)Nc3cccnn3)CC2)c1` (centres unmarked) [Example 31, 4-[3-(1-methylbutoxy)benzylidene]-N-pyridazin-3-ylpiperidine-1-carboxamide] the “hFAAH KInact/K” value was 7450 M⁻¹ s⁻¹. With `O=C(Nc1cccnn1)N1CCC(=Cc2cccc(OCCCC(F)(F)F)c2)CC1` [Example 72, N-pyridazin-3-yl-4-[3-(4,4,4-trifluorobutoxy)benzylidene]piperidine-1-carboxamide] the “hFAAH KInact/K” value was 16800 M⁻¹ s⁻¹. `O=C(Nc1cccnn1)N1CCC(=Cc2cccc(OC3CCCC3)c2)CC1` [Example 13, 4-[3-(cyclopentyloxy)benzylidene]-N-pyridazin-3-ylpiperidine-1-carboxamide] was tested, and the “hFAAH KInact/K” value was 2570 M⁻¹ s⁻¹. With `CC(C)C(C)Oc1cccc(C=C2CCN(C(=O)Nc3cccnn3)CC2)c1` (centres unmarked) [Example 61, 4-[3-(1,2-dimethylpropoxy)benzylidene]-N-pyridazin-3-ylpiperidine-1-carboxamide] the “hFAAH KInact/K” value was 1420 M⁻¹ s⁻¹. In the case of `O=C(Nc1cccnn1)N1CCC(=Cc2cccc(OCC3CC=CCC3)c2)CC1` (centres unmarked) [Example 57, 4-[3-(cyclohex-3-en-1-ylmethoxy)benzylidene]-N-pyridazin-3-ylpiperidine-1-carboxamide], the “hFAAH KInact/K” value is reported as 16300 M⁻¹ s⁻¹. In the case of `CCC(CC)Oc1cccc(C=C2CCN(C(=O)Nc3cccnn3)CC2)c1` [Example 28, 4-[3-(1-ethylpropoxy)benzylidene]-N-pyridazin-3-ylpiperidine-1-carboxamide], the “hFAAH KInact/K” value is reported as 303 M⁻¹ s⁻¹. With `O=C(Nc1cccnn1)N1CCC(=Cc2cccc(OCC3Cc4ccccc4O3)c2)CC1` (centres unmarked) [Example 100, 4-[3-(2,3-dihydro-1-benzofuran-2-ylmethoxy)benzylidene]-N-pyridazin-3-ylpiperidine-1-carboxamide] the “hFAAH KInact/K” value was 2505 M⁻¹ s⁻¹. `C=CC(C)Oc1cccc(C=C2CCN(C(=O)Nc3cccnn3)CC2)c1` (centres unmarked) [Example 26, 4-{3-[(1-methylprop-2-en-1-yl)oxy]benzylidene}-N-pyridazin-3-ylpiperidine-1-carboxamide] was tested, and the “hFAAH KInact/K” value was less than 10.0 M⁻¹ s⁻¹. For `O=C(Nc1cccnc1)N1CCC(=Cc2cccc(OC3CCC3)c2)CC1` [Example 8, 4-[3-(cyclobutyloxy)benzylidene]-N-pyridin-3-ylpiperidine-1-carboxamide], the “hFAAH KInact/K” value was 324 M⁻¹ s⁻¹. With `O=C(Nc1cccnn1)N1CCC(=Cc2cccc(OCCc3ccsc3)c2)CC1` [Example 78, N-pyridazin-3-yl-4-{3-[2-(3-thienyl)ethoxy]benzylidene}piperidine-1-carboxamide] the “hFAAH KInact/K” value was 35803 M⁻¹ s⁻¹. With `O=C(Nc1cccnc1)N1CCC(=Cc2cccc(OC3CC3)c2)CC1` [Example 29, 4-[3-(cyclopropyloxy)benzylidene]-N-pyridin-3-ylpiperidine-1-carboxamide] the “hFAAH KInact/K” value was 1300 M⁻¹ s⁻¹. `O=C(Nc1cccnn1)N1CCC(=Cc2cccc(OCC3CCOC3)c2)CC1` (centres unmarked) [Example 53, N-pyridazin-3-yl-4-[3-(tetrahydrofuran-3-ylmethoxy)benzylidene]piperidine-1-carboxamide] was tested, and the “hFAAH KInact/K” value was 1750 M⁻¹ s⁻¹. In the case of `CCC(C)COc1cccc(C=C2CCN(C(=O)Nc3cccnn3)CC2)c1` (centres unmarked) [Example 50, 4-[3-(2-methylbutoxy)benzylidene]-N-pyridazin-3-ylpiperidine-1-carboxamide], the “hFAAH KInact/K” value is reported as 4500 M⁻¹ s⁻¹.
